The record followed here is patent US20240287489A1, “CHITINOLYTIC ENZYME-BASED PLANT PROTECTION AGENTS” (GLOBACHEM NV, priority 2021, published 2024).

Common to all, as to assay: Effect of metallic ions and chemical compounds on chitinase activity
Common to all, as to type: biochemical, P. orarium
What all share (conditions): relative to standard MAT buffer control (100%); ions and EDTA 1 mM, Tween 20 0.5% v/v, SDS 0.5% w/v; 2 μM enzyme

One assay concerns recombinant chitinase C4. On the procedure: (§1) The addition of different co-factors and chemicals was assessed to determine whether they stimulate or inhibit enzymatic activity and the effect was evaluated relative to the control in standard MAT buffer (33 mM 2-(N-morpholino) ethanesulfonic acid (MES), 33 mM sodium acetate, 33 mM Tris(hydroxymethyl) aminomethane (TRIS); pH 8.0). The selection of tested compounds at the respective concentrations was based on findings for different chitinases so far [Zarei et al., J. Microbiol., 2011. 42: p. 1017-1029.]. […] All enzymes were inhibited the strongest by Zn2+ and Cu2+ and SDS (0.5% w/v) resulting in a relative loss of activity of up to 99%. […] Inhibitory effects of Ni2+ and imidazole on enzymatic activity also underline the requirement for dialysis of the elution fractions after purification in order to remove residual Ni2+ and imidazole from the elution buffer.
(§2) Enzyme samples were incubated at different temperature (10-60° C., 10° C. increment) and pH (4-11, increment 1) using different buffer systems (Acetate, Tris-HCl, MES, total molar concentration 100 mM), as well as NaCl content (0, 1. 2.5, 5, 10 and 20% w/v) to determine optimum reaction conditions. All experiments were carried out at 1.0 ml scale using 2 μM of the respective enzymes and a 5% (wv) suspension of chitin powder extracted from shrimp shells (˜400.000 g/mol; Carl, Roth) in 100 mM MAT buffer. For the determination of the substrate specificity, chitin powder (5% w/v), glycol chitin (10% v/v), colloidal chitin (5% w/v), chitosan [DA 15-25%, medium molecular weight, Sigma-Aldrich] (5% w/v) and microcrystalline cellulose powder (Sigma Aldrich) (5% w/v) were investigated, respectively. The effect of several potential co-factors on activity was elucidated at a concentration of 1 mM. Additionally, the effect of detergents [SDS 0.5% (w/v), Tween-20 and Triton X-100 both at 0.5% (v/v)] and chemicals (Imidazole 100 mM, EDTA 1 mM) on enzymatic activity was assessed. Samples were incubated in a thermomixer for 16 h at 900 rpm. After incubation, samples were analyzed using the enzyme assay. Thermostability was assessed after incubation of recombinant chitinases at 60° C. for different durations followed by the quantification of residual enzyme activity under standard assay conditions.

The next assay has as its system recombinant chitinase C2. As for the experimental part: as §1, §2
For the next assay, the system named is recombinant chitinase C1. On the procedure: as §1, §2
The next assay concerns recombinant chitinase C5. As for the experimental part:
as §1, §2

The test system of another assay is recombinant chitinase C3. As for the experimental part: as §1, §2

For the compound `O=C(O)CN(CCN(CC(=O)O)CC(=O)O)CC(=O)O` [EDTA], the “[%] Residual activity C4” value in the assay on recombinant chitinase C4 is listed as 73.9 ± 4.1%. The “[%] Residual activity C2” value with recombinant chitinase C2 stood at 20.4 ± 1.6%. In the assay with recombinant chitinase C1, the “[%] Residual activity C1” value is on record as 68.9 ± 0.7%. For the same compound, the “[%] Residual activity C5” value with recombinant chitinase C5 turned out to be 28.0 ± 0.9%. Also, the “[%] Residual activity C3” value in the assay on recombinant chitinase C3 was 80.8 ± 4.8%.
On the same counts, the results for `[K+]` [K^2+] are 3.7 ± 0.2%, 44.8 ± 2.3%, 100.1 ± 2.8%, 28.6 ± 0.4% and 72.6 ± 1.7%.
On the same counts, the results for `[Zn+2]` [Zn^2+] are 8.1 ± 0.7%, 2.3 ± 0.4%, 30.5 ± 0.3%, 0.6 ± 0.5% and 21.7 ± 0.1%.
The like results for `[Cu+2]` [Cu^2+] were, in that order, 14.8 ± 3.4%, 12.3 ± 0.9%, 11.1 ± 3.7%, 3.9 ± 2.9% and 16.9 ± 0.2%.
Regarding `CCCCCCCCCCCCOS(=O)(=O)[O-].[Na+]` [SDS, sodium dodecyl sulfate], the “[%] Residual activity C4” value with recombinant chitinase C4 is reported as 33.2 ± 3.4%. Moreover, in the assay with recombinant chitinase C2, the “[%] Residual activity C2” value is given as 21.6 ± 1.0%. Moreover, in the assay on recombinant chitinase C1, the “[%] Residual activity C1” value turned out to be 1.5 ± 0.2%. The “[%] Residual activity C5” value in the assay on recombinant chitinase C5 is recorded as 19.9 ± 0.3%. Moreover, in the assay with recombinant chitinase C3, the “[%] Residual activity C3” value amounted to 2.4 ± 1.9%.
On the same counts, the results for `[Ca+2]` [Ca^2+] are 3.8 ± 0.4%, 35.6 ± 1.7%, 92.7 ± 2.1%, 21.3 ± 0.1% and 94.7 ± 2.0%.
Take `[Ni+2]` [Ni^2+]: in the assay with recombinant chitinase C4, the “[%] Residual activity C4” value is recorded as 38.8 ± 1.7%. In addition, in the assay on recombinant chitinase C2, the “[%] Residual activity C2” value is 23.0 ± 0.7%. Also, the “[%] Residual activity C1” value with recombinant chitinase C1 is 76.6 ± 5.1%. In the assay with recombinant chitinase C5, the “[%] Residual activity C5” value is 5.6 ± 0.3%. Also, in the assay with recombinant chitinase C3, the “[%] Residual activity C3” value stood at 64.8 ± 1.2%.
On the same counts, the results for `[Mg+2]` [Mg^2+] are 3.3 ± 0.2%, 38.7 ± 1.7%, 99.8 ± 3.1%, 25.8 ± 0.9% and 68.8 ± 2.8%.
